System: patients with certain neurological and mental disorders
Experiment: Therapeutic effects of psilocybin in selected patients (patient experiences)
Format: in vivo, human
Settings: identified group of selected patients after intaking the psilocybin products
Source text: In one aspect, psilocybin is effective in treating and reducing ADHD, anxiety, ADD and the symptoms of Tourette Syndrome. […] Some patients suffered significant side effects when taking prescription drugs for the respective indications.

SMILES: CN(C)CCc1c[nH]c2cccc(OP(=O)(O)O)c12 [Psilocybin, psilocybin]
- side effects: minimal side effects

Source: patent US20250255890A1, “PSILOCYBIN CULTIVATION, EXTRACTION, AND THERAPEUTIC USE” (Golden Fleece Research Group Inc., priority 2024, published 2025)
